Measurements reported in paper PMC10094048, “Synthesis and Anticancer Evaluation of 4-Anilinoquinolinylchalcone Derivatives” (International Journal of Molecular Sciences, 2023).
Counter-ions that a name gives are not always drawn. Like-named read-outs stand apart in the source and are kept apart here. One block for each molecule: values may come before it.

How the values were obtained:
[1] = tested on: MDA-MB-231; assay: XTT antiproliferative assay, MDA-MB-231; type: cell-based; details: Homo sapiens, 72 h, mean ± SD
Procedure: (§1) All the synthesized 4-anilinoquinolinylchalcone derivatives were evaluated in vitro against two cancer cells (Huh-7 and MDA-MB-231) and a non-cancer normal fibroblast lung cell line (MRC-5) using an XTT (sodium 3′-[1-(phenylamino-carbonyl)-3,4-tetrazolium}-bis(4-methoxy-6-nitro)benzene sulfonic acid hydrate) assay. The concentration that inhibited the growth of 50% of cells (IC50) was determined from the linear portion of the curve by calculating the concentration of the tested agent that reduced absorbance in treated cells, compared to control cells, by 50%. The IC50 results of these 4-anilinoquinolinylchalcone derivatives are summarized (Table 1). […] Thus, 4a was selected as a lead compound for further mechanism studies.
(§2) Cancer cells (Huh-7, MDA-MB-231) and normal lung cells (MRC-5) were purchased from Bioresources Collection and Research Center, Taiwan. Cells were maintained in the same standard medium, grown as a monolayer in DMEM (Gibco, Miami, FL, USA), and supplemented with 10% fetal bovine serum (FBS) and antibiotics, i.e., 100 IU/mL penicillin, 0.1 mg/mL streptomycin and 0.25 μg/mL amphotericin. The culture was maintained at 37 °C with 5% CO2 in a humidified atmosphere. Cells (5 × 10^3 cells/well) were treated with tested compounds for 72 h in the medium containing 10% FBS. Cell viability was quantitated with the use of sodium 3′-[1-(phenylamino-carbonyl)-3,4-tetrazolium}-bis(4-methoxy-6-nitro)benzene sulfonic acid hydrate (XTT) colorimetric assay (Biological Industries, Beit-Haemek, Israel). XTT labeling reagent (1 mg/mL) was mixed with electron-coupling reagent, following the manufacturer’s instructions, and 50 μL of the mixture was added directly to the cells. The plates were further incubated at 37 °C for 4 h. Color was measured spectrophotometrically in a microtiter plate reader at 492 nm and used as a relative measurement of viable cell numbers. After drug treatment, the viable cell number was compared to the solvent and untreated control cell number. This information was used to determine the percent of control growth as (Abtreated/Abcontrol) × 100, where Ab represents the mean absorbance (n = 3). The concentration that killed 50% of cells (IC50) was determined from the linear portion of the curve by calculating the concentration of the agent that reduced the absorbance in treated cells, compared to control cells, by 50%.

[2] = tested on: HA22T; set-up: method as in PMID 31234033; details: Chen et al.; cited from earlier work
[3] = tested on: HepG2; set-up: method as in PMID 31234033; details: Chen et al.; cited from earlier work
[4] = tested on: MRC-5; assay: XTT antiproliferative assay, normal lung cells MRC-5; type: cell-based; details: Homo sapiens, MRC5, 72 h, mean ± SD
Procedure: as §1, §2

[5] = tested on: Huh-7; assay: XTT antiproliferative assay, Huh-7; type: cell-based; details: Homo sapiens, 72 h, mean ± SD
Procedure: as §1, §2

[6] = tested on: Huh-7; set-up: method as in PMID 31234033; details: Chen et al.; cited from earlier work
[7] = tested on: MDA-MB-231 cell line; set-up: method as in PMID 31234033; details: after 24 h of treatment; read-out: IC50 cytotoxicity on MDA-MB-231; cited from earlier work
[8] = tested on: rheumatoid arthritis fibroblast-like synoviocytes; details: cited from earlier work
[9] = tested on: breast cancer MDA-MB-231 cells; assay: ROS assay (H2DCFDA flow cytometry); type: cell-based, human; details: MDA-MB-231, 24 h
Procedure: To evaluate the ROS-inducing ability of compound 4a, the flow cytometry-based ROS detection of breast cancer MDA-MB-231 cells was conducted.
The oxidative stress indicator, such as ROS, was selected to assess the impact of drug treatment on the change in oxidative stress. According to the manufacturer’s instructions, the ROS reacting probe 2′,7′-dichlorodihydrofluorescein diacetate (H2DCFDA) (Sigma-Aldrich) was applied to drug-treated cells. Finally, these stained cells were conducted with flow cytometry.

[10] = tested on: breast cancer MDA-MB-231 cells; assay: Caspase 3/7 luminescence assay; type: cell-based, human; details: for caspase 3/7 activation: 24 h
Procedure: Using the caspase 3/7 luminescence assay, the modulating ability of breast cancer MDA-MB-231 cells on caspase 3/7 signaling with compound 4a was evaluated. […] Moreover, this caspase 3/7 activation with compound 4a was suppressed by NAC pretreatment.
Caspase 3/7 activation is the essential process for apoptosis, which was measured by the caspase-Glo® 3/7 assay (Promega; Madison, WI, USA), and its signal was read and recorded by a Luminometer (Berthold Technologies GmbH & Co., Bad Wildbad, Germany). The role of the induction of ROS affecting caspase 3/7 activity in drug-treated cells was evaluated by the 1 h pretreatment of 10 mM NAC [45, 49, 50].

[11] = tested on: breast cancer MDA-MB-231 cells; assay: Cellular ATP assay (ATPlite luminescence); type: cell-based, human; details: MDA-MB-231, 24 h
Procedure: ATP levels are another cell viability indicator [31, 32, 33]. To further confirm the inhibition of the cell proliferative ability of compound 4a, the cellular ATP levels of breast cancer MDA-MB-231 cells were assessed (Figure 2).
Cellular ATP was determined using the ATPlite luminescence reagent (PerkinElmer Life Sciences, Boston, MA, USA). According to the user instruction, the cell lysate of treated cells was reacted with ATPlite substrate for 5 min in the dark. Finally, the luminescence was detected by a luminometer (Berthold Technologies GmbH & Co., Bad Wildbad, Germany).

[12] = tested on: breast cancer MDA-MB-231 cells; assay: Annexin V/7AAD apoptosis assay (flow cytometry); type: cell-based, human; details: MDA-MB-231, 24 h, 5 and 10 μM versus control and 1 μM
Procedure: To examine the apoptosis-inducing ability of compound 4a, the annexin V/7-aminoactinomycin D (7-AAD) change in breast cancer MDA-MB-231 cells was assessed. […] Compound 4a, consisting of both versatile quinoline and chalcone moieties, was also active in inducing cancer cell apoptosis.
Annexin V/7AAD flow cytometry was a common method for detecting apoptosis. The commercial product containing annexin V-FITC (1:1000) and 7AAD (1 μg/mL) (Strong Biotech; Taipei, Taiwan) was applied to stain drug-treated cells for 1 h. Finally, these stained cells were conducted with flow cytometry (Guava easyCyte, Luminex, TX, USA).

[13] = tested on: non-small-cell lung A549 cancer cells; details: 48 h trypan blue exclusion assay; read-out: IC50 antiproliferation A549; cited from earlier work
[14] = tested on: SKBR-3; set-up: method as in PMID 23237975; details: read-out: IC50 against the growth of SKBR-3; cited from earlier work
[15] = tested on: H1299; set-up: method as in PMID 23237975; details: read-out: IC50 against the growth of H1299; cited from earlier work
[16] = tested on: MDA-MB-231; set-up: method as in PMID 23237975; details: value marked with footnote c; cited from earlier work
[17] = tested on: human retinoblastoma Y79 cell; set-up: method as in PMID 26564153; details: 48 h XTT assay; read-out: IC50 Y79 cell proliferation; cited from earlier work
[18] = cited from earlier work
[19] = tested on: retinoblastoma cells; set-up: method as in PMID 26564153; details: cited from earlier work

IC50 [1]: 12.8 ± 0.91 µM | IC50 [5]: 12.5 ± 0.28 µM
SMILES: CS(=O)(=O)CCNCc1ccc(-c2ccc3ncnc(Nc4ccc(OCc5cccc(F)c5)c(Cl)c4)c3c2)o1 [Lapatinib]
IC50 [2]: 4.85 µM | IC50 [3]: 3.42 µM | IC50 [4]: > 20 µM | IC50 [6]: 2.11 µM | IC50 [7]: 32.5 µM

SMILES: COc1cc(/C=C/C(=O)c2ccc3ccccc3c2O)cc(OC)c1 [(E)-3-(3,5-dimethoxyphenyl)-1-(1-hydroxynaphthalen-2-yl) prop-2-en-1-one]
ROS burst [8]: evoke ROS burst

IC50 [1]: 0.11 ± 0.07 µM | IC50 [5]: 1.47 ± 0.07 µM
SMILES: COc1ccc(C(=O)/C=C/c2cc(Nc3ccc(OCc4ccccc4)cc3)c3ccccc3n2)cc1 [Compound 4a, (E)-3-{4-{[4-(Benzyloxy)phenyl]amino}quinolin-2-yl}-1-(4-methoxyphenyl)prop-2-en-1-one]
ROS induction [9]: dose-responsive induction of ROS | IC50 [4]: > 20 µM | caspase 3/7 activation ([10]; MDA-MB-231, 1 μM): inactive | caspase 3/7 activation ([10]; MDA-MB-231, 5 and 10 μM): significant caspase 3/7 activation | caspase 3/7 activation after NAC pretreatment ([10]; MDA-MB-231, 1 h pretreatment of 10 mM NAC, then 4a 24 h): suppressed | cellular ATP levels [11]: dose-responsive downregulation of ATP | annexin V/7AAD apoptosis [12]: more significant apoptosis

SMILES: CN(C)CCCOc1ccc(-c2nc3ccc(F)cc3c3c2-c2ccc(OCCCN(C)C)cc2C3=O)cc1 [DFIQ]
IC50 [13]: 3.53 µM

SMILES: COc1ccc(-c2cc3ccccc3nc2/C=C/C(=O)c2ccccc2)cc1 [Compound 1, (E)-3-[3-(4-methoxyphenyl)quinolin-2-yl]-1-phenylprop-2-en-1-one]
IC50 [14]: 0.7 µM | IC50 [15]: 1.41 µM | IC50 [16]: 0.86 ± 0.07 µM | IC50 [4]: 0.66 ± 0.06 µM

SMILES: O=C1c2cc(OCCN3CCCC3)ccc2-c2c(-c3ccc(OCCN4CCCC4)cc3)nc3ccc(OCCN4CCCC4)cc3c21 [BPIQ, 2,9-bis [2-(pyrrolidin-1-yl)ethoxy]-6-{4-[2-(pyrrolidin-1-yl)ethoxy]phenyl}-11H-indeno[1,2-c]quinolin-11-one]
IC50 [17]: 13.6 µM | apoptosis induction [18]: apoptosis induction | ROS production [19]: induces ROS production

melting point: 179 to 180 °C
SMILES: O=C(/C=C/c1cc(Nc2ccc(OCc3ccc(Cl)cc3)cc2)c2ccccc2n1)c1ccc(F)cc1 (as salt: salt) [Compound 5g, (E)-3-{4-{{4-[(4-Chlorobenzyl)oxy]phenyl}amino}quinolin-2-yl}-1-(4-fluorophenyl)prop-2-en-1-one]

melting point: 132 to 133 °C
SMILES: COc1ccc(C(=O)/C=C/c2cc(Nc3ccc(OCc4cccc(Cl)c4)cc3)c3ccccc3n2)cc1 (as salt: salt) [Compound 4d, (E)-3-{4-{{4-[(3-Chlorobenzyl)oxy]phenyl}amino}quinolin-2-yl}-1-(4-methoxy-phenyl) prop-2-en-1-one]

melting point: 176 to 177 °C
SMILES: COc1ccc(C(=O)/C=C/c2cc(Nc3ccc(OCc4ccc(F)cc4)cc3)c3ccccc3n2)cc1 (as salt: salt) [Compound 4h, (E)-3-{4-{ {4-[ (4-Fluorobenzyl)oxy]phenyl}amino}quinolin-2-yl}-1-(4-methoxy - phenyl)prop-2-en-1-one]
